Measurements from US20020172670A1 (priority 2000, published 2002).
pIC50: −log10 of the molar value.

Columns and labels:
dGMII [1] = target: T1, dGMII (Drosophila melanogaster, UniProt Q24451); assay: binding affinity of inhibitors for dGMII; conditions: relative to DMNJ; data not shown
T1 sequence (Q24451 1-1108): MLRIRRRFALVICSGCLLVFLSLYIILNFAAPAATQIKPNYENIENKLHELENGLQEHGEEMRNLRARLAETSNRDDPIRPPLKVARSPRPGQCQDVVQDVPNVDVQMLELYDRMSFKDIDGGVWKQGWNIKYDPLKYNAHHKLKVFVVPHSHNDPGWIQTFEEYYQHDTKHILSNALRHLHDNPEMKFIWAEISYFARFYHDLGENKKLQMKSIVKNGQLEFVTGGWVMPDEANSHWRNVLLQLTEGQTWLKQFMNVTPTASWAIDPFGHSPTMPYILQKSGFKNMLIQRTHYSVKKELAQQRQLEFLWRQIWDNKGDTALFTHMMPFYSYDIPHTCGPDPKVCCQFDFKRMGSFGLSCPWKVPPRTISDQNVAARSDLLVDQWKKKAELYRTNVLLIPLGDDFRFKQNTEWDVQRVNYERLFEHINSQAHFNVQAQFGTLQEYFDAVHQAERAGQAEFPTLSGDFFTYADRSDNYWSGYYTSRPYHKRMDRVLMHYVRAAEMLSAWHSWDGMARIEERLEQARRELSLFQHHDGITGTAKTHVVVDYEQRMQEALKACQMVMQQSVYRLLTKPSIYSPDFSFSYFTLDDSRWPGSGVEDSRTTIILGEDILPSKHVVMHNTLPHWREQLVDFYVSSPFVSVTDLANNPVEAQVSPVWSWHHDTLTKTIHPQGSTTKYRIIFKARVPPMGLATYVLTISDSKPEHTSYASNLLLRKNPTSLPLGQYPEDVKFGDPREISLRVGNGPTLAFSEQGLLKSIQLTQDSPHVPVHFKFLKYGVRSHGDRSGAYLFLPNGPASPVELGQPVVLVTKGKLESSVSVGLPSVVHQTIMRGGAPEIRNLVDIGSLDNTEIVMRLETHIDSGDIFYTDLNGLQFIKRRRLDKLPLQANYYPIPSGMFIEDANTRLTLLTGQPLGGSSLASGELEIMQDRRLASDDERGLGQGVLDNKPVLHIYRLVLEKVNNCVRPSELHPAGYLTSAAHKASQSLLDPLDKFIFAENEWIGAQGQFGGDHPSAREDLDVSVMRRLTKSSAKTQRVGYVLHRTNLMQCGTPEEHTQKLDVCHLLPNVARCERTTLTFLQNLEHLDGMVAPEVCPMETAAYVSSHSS

[2] = system: Drosophila Schneider (S2) cells; assay: viability of induced S2 cells by Trypan blue exclusion; format: cell-based; conditions: 10-20 μM cadmium, until the end of the induction period
Description: Initial experiments were carried out in S2 medium containing 10% bovine serum. Metal concentrations used to induce and time of induction were optimized for dGMII production. […] Cadmium has been reported to be detrimental to the growth of cells. However, at the concentrations used here, the cells continued to grow and maintain greater than 90% viability (as assessed by Trypan blue exclusion) until the end of the induction period. Cells were maintained in the continous presence of cadmium for up to three passages.

dGMII [3] = target: T2, dGMII (Drosophila melanogaster, UniProt Q24451); conditions: cited from earlier work
T2 construct: The resulting constructs consist of the dGMII catalytic region with a short length of the stalk region; Bip secretion signal (N); made in house; host or cells: Drosophila Schneider S2 cells, stably transfected, protein secreted into the medium
T2 sequence (Q24451 76-1108): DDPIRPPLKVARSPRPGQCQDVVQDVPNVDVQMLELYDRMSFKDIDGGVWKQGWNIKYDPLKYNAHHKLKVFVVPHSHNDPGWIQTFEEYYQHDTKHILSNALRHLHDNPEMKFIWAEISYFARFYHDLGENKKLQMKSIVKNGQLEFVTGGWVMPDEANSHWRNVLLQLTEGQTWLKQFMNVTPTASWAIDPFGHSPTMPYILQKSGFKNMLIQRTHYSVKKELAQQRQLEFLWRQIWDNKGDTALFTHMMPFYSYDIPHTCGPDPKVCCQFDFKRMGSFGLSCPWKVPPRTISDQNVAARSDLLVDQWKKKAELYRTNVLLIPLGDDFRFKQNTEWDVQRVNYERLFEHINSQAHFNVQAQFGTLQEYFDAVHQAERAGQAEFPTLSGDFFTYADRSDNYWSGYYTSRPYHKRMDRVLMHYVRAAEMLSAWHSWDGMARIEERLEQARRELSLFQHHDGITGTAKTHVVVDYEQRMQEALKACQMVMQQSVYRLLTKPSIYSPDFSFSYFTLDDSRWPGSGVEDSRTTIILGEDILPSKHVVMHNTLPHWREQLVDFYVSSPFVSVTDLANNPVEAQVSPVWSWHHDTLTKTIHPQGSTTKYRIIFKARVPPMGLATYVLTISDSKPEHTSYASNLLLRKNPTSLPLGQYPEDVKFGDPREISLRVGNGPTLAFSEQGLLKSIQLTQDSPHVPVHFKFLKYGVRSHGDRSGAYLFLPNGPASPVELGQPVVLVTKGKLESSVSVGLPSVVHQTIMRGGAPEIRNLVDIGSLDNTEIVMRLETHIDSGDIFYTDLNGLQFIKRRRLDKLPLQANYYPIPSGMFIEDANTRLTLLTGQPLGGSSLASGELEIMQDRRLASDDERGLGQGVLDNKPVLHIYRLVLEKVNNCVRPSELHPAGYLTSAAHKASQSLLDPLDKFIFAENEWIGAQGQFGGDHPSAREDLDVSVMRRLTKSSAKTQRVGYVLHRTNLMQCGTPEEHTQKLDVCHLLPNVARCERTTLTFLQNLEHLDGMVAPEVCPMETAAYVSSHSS

mouse GMII = target: T3, mouse GMII (Mus musculus, UniProt P27046); conditions: Rabouille et al., 1999; cited from earlier work
T3 sequence (P27046 1-1150): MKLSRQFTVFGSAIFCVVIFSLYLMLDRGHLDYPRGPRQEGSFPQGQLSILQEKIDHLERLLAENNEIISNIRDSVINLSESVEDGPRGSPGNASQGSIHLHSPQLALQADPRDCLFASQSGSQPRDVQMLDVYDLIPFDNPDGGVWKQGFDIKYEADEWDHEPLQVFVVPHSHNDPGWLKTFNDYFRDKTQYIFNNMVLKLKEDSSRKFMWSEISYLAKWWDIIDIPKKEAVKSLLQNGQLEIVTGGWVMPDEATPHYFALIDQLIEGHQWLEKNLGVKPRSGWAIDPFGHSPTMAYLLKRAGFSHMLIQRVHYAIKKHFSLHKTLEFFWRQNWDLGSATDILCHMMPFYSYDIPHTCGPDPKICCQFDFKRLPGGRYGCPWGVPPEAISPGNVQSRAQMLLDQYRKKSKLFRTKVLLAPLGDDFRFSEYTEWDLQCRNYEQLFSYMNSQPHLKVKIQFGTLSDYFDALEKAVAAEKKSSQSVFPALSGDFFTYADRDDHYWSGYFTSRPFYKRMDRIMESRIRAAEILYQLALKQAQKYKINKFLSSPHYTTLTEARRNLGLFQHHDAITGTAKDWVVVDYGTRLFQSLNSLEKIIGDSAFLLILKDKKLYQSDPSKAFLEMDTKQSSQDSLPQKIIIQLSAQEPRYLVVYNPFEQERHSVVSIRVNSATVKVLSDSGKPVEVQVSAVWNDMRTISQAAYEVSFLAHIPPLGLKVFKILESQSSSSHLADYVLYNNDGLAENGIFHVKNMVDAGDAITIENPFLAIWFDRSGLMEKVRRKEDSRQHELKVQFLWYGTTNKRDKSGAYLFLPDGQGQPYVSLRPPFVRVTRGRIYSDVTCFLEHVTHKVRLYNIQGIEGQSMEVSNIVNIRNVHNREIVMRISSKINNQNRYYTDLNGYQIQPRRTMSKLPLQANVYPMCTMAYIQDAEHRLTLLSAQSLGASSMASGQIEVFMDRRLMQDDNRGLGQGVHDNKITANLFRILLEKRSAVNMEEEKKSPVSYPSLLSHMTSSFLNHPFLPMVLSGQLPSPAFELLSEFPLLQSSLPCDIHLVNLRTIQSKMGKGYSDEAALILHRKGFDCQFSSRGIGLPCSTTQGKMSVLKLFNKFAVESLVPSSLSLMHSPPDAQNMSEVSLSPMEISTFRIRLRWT

With `O[C@H]1[C@H]2[C@H](O)CCCN2C[C@H]1O` [swainsonine] the “binding affinity for the enzyme, compared to the substrate-mimic DMNJ” value (dGMII [1]) was 10,000 times higher.

With `[Cd]` [Cadmium] the “cell viability (Trypan blue exclusion)” value [2] was “greater than 90%”.

For `NC(CO)(CO)CO` [Tris, tris(hydroxymethyl)-aminomethane, reference compound], the “inhibition of dGMII activity” value (dGMII [3]; Rabouille et al., 1999) is given as “inhibit”.

In the case of `[Cu+2]` [copper], the “inactivation of Drosophila GMII” value (dGMII [3]; Rabouille et al., 1999) is listed as “effectively inactivate”, the pIC50 (dGMII [3]; read-out: inhibition of dGMII by copper, IC50) is listed as 4.60 and the “inactivation of mouse GMII” value (mouse GMII) is listed as “effectively inactivate”.
